Assay results from US20020006399A1, “Therapeutic uses of hormonal manipulation using combinations of various agents to treat atherosclerosis” (priority 1999, published 2002).
Structures can show the parent of a compound that is named as a salt.

Tests used:
Type in all cases: in vivo
[1] = tested on: prostate cancer patients; test: Retrospective chart review: cardiac events in prostate cancer patients treated with LHRH inhibitors vs controls; details: for Events/Year: cardiac events per subject year, Total Control .0338; for observed difference between the proportions vs Total Control: events/year, treated group vs Total Control (Groups 1 + 4); for Cardiac Events: heart attack, coronary artery bypass or angioplasty, on drug at least one year, Total Control 32 events over 948 subject years; for heart attacks compared with controls: treated patients vs controls
Protocol: Another retrospective study was performed which compared the rates of patient reported heart attack in several groups 1-control group of males entering the urology office for any routine complaint. 2-a group of prostate cancer patients treated with Leuprolide acetate, a LHRH inhibitor. 3-a group of prostate cancer patients treated with Goserelin acetate (Zoladex), a LHRH inhibitor. 4-a group of prostate cancer patients not treated with hormonal manipulation (neither Leuprolide or Goserelin). 5-all patients on LHRH inhibitors (group 2+group 3). The patients on either Leuprolide or Goserelin were treated with the recommended doses indicated for the treatment of prostatic carcinoma, at either one or three month intervals depending on the preparation used. Leuprolide was dosed at 7.5 mg monthly (single intramuscular injection) or at 22.5 mg at 3 month intervals (single intramuscular injection). Goserelin was dosed at 3.6 mg monthly or at a dose of 10.8 mg at 3 month intervals (subcutaneous injection). The various groups of office patients were evaluated by chart […]. In groups 2 and 3 only those on drug for at least one year were considered. Cardiac event is defined either the history of a heart attack or occurrence of coronary artery bypass or angioplasty. In control groups only events occurring in the 3 years prior to the questionnaire are charted.

[2] = tested on: patients of the practice; test: Second study: questionnaire on cardiac events in patients of the practice treated with finasteride
Protocol: Finasteride was being administered at a dosage of a single oral 5 mg tablet a day. This is the same tablet used in treatment of BPH as disclosed in U.S. Pat. No. 5,175,155 and such dosage applies in the present invention. However, use of a 2 mg or 10 mg oral tablet is contemplated. Two studies were undertaken to determine whether finasteride was, in fact, effective in lessening the incidence of heart disease and other complications of atherosclerosis. In the second study patients of the practice were given a questionnaire. Various patients had been treated with finasteride for varying lengths of time. Only those on the drug for at least one year were considered. The average time on finasteride was 3 years. The number of cardiac events occurring in the patients taking finasteride was only 4 events over 242 patient-years. (1.6%/yr.) In the control group 26 events occurred in the 3 years prior over 732 patient-years. (3.5%/yr.) The 45% decrease observed in cardiac events is believed to be significant. (90% Cl equal to 1.4% to 3.7%).

[3] = tested on: patients diagnosed with benign prostatic hypertrophy; test: First retrospective study: cardiac events (cardiac bypass or heart attack) in BPH patients on finasteride vs alpha-blocker control; details: finasteride treated group of 22 subjects, 61 subject-years, on drug at least a year, 5 mg oral tablet a day; control 7 events over 288 subject-years
Protocol: Finasteride was being administered at a dosage of a single oral 5 mg tablet a day. This is the same tablet used in treatment of BPH as disclosed in U.S. Pat. No. 5,175,155 and such dosage applies in the present invention. However, use of a 2 mg or 10 mg oral tablet is contemplated. Two studies were undertaken to determine whether finasteride was, in fact, effective in lessening the incidence of heart disease and other complications of atherosclerosis. The result of the first study is as follows; A list of patients diagnosed with benign prostatic hypertrophy in late 1992 and 1993 was located. Treatment had been initiated with either finasteride or another oral agent of a different class (alpha-blocker). Patients were then contacted and an interval history was taken. In the control group of 45 subjects, 7 events (either cardiac bypass or heart attack) occurred in 6 subjects over 288 subject-years. In the finasteride treated group of 22 subjects there were no events over 61 subject-years. […] (95% Cl equal to 0.65% to 4.2%).

[4] = tested on: patients treated for benign prostatic hypertrophy; test: Clinical observation of patients given finasteride for benign prostatic hypertrophy; details: finasteride single oral 5 mg tablet a day for BPH
Protocol: Finasteride was being administered at a dosage of a single oral 5 mg tablet a day. This is the same tablet used in treatment of BPH as disclosed in U.S. Pat. No. 5,175,155 and such dosage applies in the present invention. However, use of a 2 mg or 10 mg oral tablet is contemplated.

| SMILES | Events/Year [1] | observed difference between the proportions vs Total Control [1] | Cardiac Events [1] | heart attacks compared with controls [1] | cardiac event rate ([2]; 4 events over 242 patient-years, control 3.5%/yr) | decrease observed in cardiac events ([2]; finasteride vs control group) | number of cardiac events ([2]; over 242 patient-years, on drug at least one year, average 3 years, control 26 events over 732 patient-years) | events (either cardiac bypass or heart attack) [3] | incidence of atherosclerosis and heart disease (observation) [4] |
| --- | --- | --- | --- | --- | --- | --- | --- | --- | --- |
| CCNC(=O)[C@@H]1CCCN1C(=O)[C@H](CCCNC(=N)N)NC(=O)[C@H](CC(C)C)NC(=O)[C@@H](CC(C)C)NC(=O)[C@H](Cc1ccc(O)cc1)NC(=O)[C@H](CO)NC(=O)[C@H](Cc1c[nH]c2ccccc12)NC(=O)[C@H](Cc1c[nH]cn1)NC(=O)[C@@H]1CCC(=O)N1 [Lupron, 5-oxo-L-prolyl-L-histidyl-L-tryptophyl-L-seryl-L-tyrosyl-D-leucyl-L-leucyl-L-arginyl-N-ethyl-L-prolinamide acetate (salt)] | .00847 | 0.253 | 1 | fewer heart attacks than controls |  |  |  |  |  |
| CC(C)C[C@H](NC(=O)[C@@H](COC(C)(C)C)NC(=O)[C@H](Cc1ccc(O)cc1)NC(=O)[C@H](CO)NC(=O)[C@H](Cc1c[nH]c2ccccc12)NC(=O)[C@H](Cc1cnc[nH]1)NC(=O)[C@@H]1CCC(=O)N1)C(=O)N[C@@H](CCCNC(=N)N)C(=O)N1CCC[C@H]1C(=O)NNC(N)=O [Zoladex, pyro-Glu-His-Trp-Ser-Tyr-D-Ser(Bu)-Leu-Arg-Pro-Azgly-NH2 acetate] | .0161 | 0.0177 | 1 | fewer heart attacks than controls |  |  |  |  |  |
| CC(C)(C)NC(=O)[C@H]1CC[C@H]2[C@@H]3CC[C@H]4NC(=O)C=C[C@]4(C)[C@H]3CC[C@]12C [finasteride, 4-azaandrost-1-ene-17-carboxamide, N-(1,1-dimethylethyl)-3oxo-(5alpha 17beta)-] |  |  |  |  | 1.6 %/yr | 45% | 4 events | no events | lower incidence of atherosclerosis and heart disease |
